Measured values reported in patent publication US8519124B2, “Chemokine receptor antagonists and use thereof” (Ono Pharmaceutical Co., Ltd., priority 2005, dated 2013).
Values belong to the compound of their own block, whether it stands above or below them.

How the values were obtained:
CXCR4 = target: T1, CXCR4 (Homo sapiens, UniProt P61073); assay: Study for inhibition of binding human SDF-1 to CEM cells (125I-SDF-1); conditions: 125I-SDF-1 binding to CEM cells
T1 construct: a human T cell strain in which CXCR4 is known to be expressed; endogenous in cells; host or cells: CEM cells (human T cell strain)
T1 sequence (P61073 whole entry): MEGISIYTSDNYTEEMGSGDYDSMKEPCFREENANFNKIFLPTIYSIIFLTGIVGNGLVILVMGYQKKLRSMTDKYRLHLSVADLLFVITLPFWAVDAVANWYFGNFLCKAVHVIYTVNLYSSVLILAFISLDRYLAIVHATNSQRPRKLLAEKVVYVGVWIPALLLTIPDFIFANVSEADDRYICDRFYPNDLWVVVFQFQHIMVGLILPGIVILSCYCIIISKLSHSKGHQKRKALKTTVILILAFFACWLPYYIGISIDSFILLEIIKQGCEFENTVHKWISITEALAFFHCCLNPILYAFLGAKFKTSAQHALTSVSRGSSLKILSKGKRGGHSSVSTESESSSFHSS
Description: Specifically, as a system of screening a compound that inhibits the binding between SDF-1 and CXCR4, for example a system of measuring the binding between iodine-labeled SDF-1 and a human T cell strain in which CXCR4 is known to be expressed is operable. The identical idea is possible since macrophage (R5) HIV and RANTES, MIP-1α, and MIP-1β all bind to CCR5.
Study for Inhibition of Binding Human SDF-1 to CEM Cells
To human T cell strain CEM cells in a binding buffer (containing HEPES and BSA), the test compound and ^125I-SDF-1 (NEN) were added and the mixture was incubated at 4° C. for 60 minutes. The reacted CEM cells were rapidly filtrated with a GF/B membrane filter plate (Packard) to adsorb. The plate was washed with PBS three times and then dried. Microscint+20 (Packard) was added thereto. An amount of the radioactivity bound to the CEM cells was measured using Top Count (Packard) and inhibition (%) of the test compound was calculated according to the following equation: Inhibition={(Et−Ea)/(Et−Ec)}×100
Et: amount of radioactivity when the test compound is not added,
Ec: amount of radioactivity when non-radioactive SDF-1 (Pepro Tech) is added in an amount of 1000 times as much as ^125I-SDF-1 as a test compound, and
Ea: amount of radioactivity when the test compound is added.

[1] = tested on: CHL/IU (cell line derived from a Chinese hamster lung); assay: Phospholipidosis detecting system using fluorescent labeling phospholipid analog (NBD-PE); format: cell-based; conditions: compound dose: 50 μM; for The rate of increase of phopholipid accumulation (%): CHL/IU cells, about 24 hours, relative to NBD-PE control
Description: Investigation with a Phospholipidosis Detecting System Using Fluorescent Labeling Phospholipidosis Analog (i) Phospholipid Accumulation Measurement 100 μL/well as required (1 dose 2 wells) of cell suspension of CHL/IU (cell line derived from a Chinese hamster lung) adjusted by MEM (7×10^4 cells/mL) adjusted by MEM (minimum essential medium) culture medium was added to a 96-well plate (96-well clear-bottom plate), and cultured for about 24 hours. After culture, the supernatant of the 96-well plate was removed, and the 100 μL/well compounds of each concentration dissolved and suspended in a minimum essential medium (MEM) including 25 μmol/L nitrobenzoxadiazole dipalmitoyl phosphatidylethanolamine (NBD-PE) (hereinafter abbreviated as a NPD-PE medium) were added and treated for about 24 hours. The treatment concentrations of each compound were set to be 6.25, 12.5, 25, 50 and 100 μmol/L. The positive control substance was set to be amiodarone hydrochloride, and the treatment concentrations were set to be 1.25, 2.5, 5, 10 and 20 μmol/L. In addition, 5 untreated controls (only MEM) and 5 NBD-PE controls (made by means of adding a 1/100 amount of DMSO to the NBD-PE culture medium) were set per compound, and cultured in the same manner. After finishing the culture, the cultures were washed twice with Phosphate buffered saline (hereinafter abbreviated as PBS) (−) 100 μL/well, and the MEM (100 μL) was added to all of the treatment wells including 2 empty wells for WST-1 background controls and cultured for about a half hour. The fluorescence intensities of each well were measured by using a microplate reader (manufactured by Molecular Devices Inc., SPECTRA max M2; the excitation wavelength 485 nm/the fluorescence wavelength 535 nm). (ii) Analysis Using the average values of each dose×2 wells, a phospholipid increase rate (%) to the NBD-PE control was calculated by using the following calculating formula: Phospholipid increase rate (%)=100×{(test article fluorescence intensity−untreated control fluorescence intensity)/(NBD-PE control fluorescence intensity−untreated control fluorescence intensity (iii) Cytotoxicity Assay The 96-well plate measured in the phospholipid accumulation measurement was measured by means of Plate Reader (manufactured by Molecular Devices Inc., SPECTRA max M2) with the main wavelength of 450 nm and the correct wavelength of 690 nm to calculate a Pre value. An amount of 5 μL/well of Premix WS T-1 was added to each of the 96 hole plates by which Pre measurement was conducted. After culture for 2 to 4 hours, the 96-well plate was measured as well as the Pre measurement to calculate an Aft value. Then, the background control value was subtracted from the each measured value. A value which was calculated by subtracting the Pre value from the Aft value was used, then the cell growth rate (%) was calculated by using the following calculating formula: Cell growth rate (%)=100×{(test article OD)/(NBD-PE control OD)} (iv) Determination A test dose that indicated value of equal to or more than 25% of the maximum phospholipid accumulation increase rate of amiodarone which was the positive control was determined as positive. In addition, the dose whose cell growth rate was equal to or less than 50% in the cytotoxicity assay was not used for determination of existence or nonexistence of a phospholipidosis inductive effect.

IC50 (CXCR4): 15 nM
SMILES: CC(C)CN1CCC2(CCN(Cc3ccc(C(=O)N(Cc4ncc[nH]4)Cc4ncc[nH]4)cc3)CC2)C1 [Example 8 (113), N,N-bis(1H-imidazol-2-ylmethyl)-4-[(2-isobutyl-2,8-diazaspiro[4.5]dec-8-yl)methyl]benzamide]
Judgement (phospholipidosis inductive effect) [1]: negative
The rate of increase of phopholipid accumulation (%) [1]: 10%

SMILES: CC(C)(C)CN1CCC2(CC1)CCN(C(=O)Cc1ccc(CN(Cc3ncc[nH]3)Cc3ncc[nH]3)cc1)C2 [Example 40 (68), 1-(4-{2-[8-(2,2-dimethylpropyl)-2,8-diazaspiro[4.5]dec-2-yl]-2-oxoethyl}phenyl)-N,N-bis(1H-imidazol-2-ylmethyl)methanamine]
Judgement (phospholipidosis inductive effect) [1]: negative
The rate of increase of phopholipid accumulation (%) [1]: 18%

SMILES: CCC(CC)N1CCC2(CCN(C(=O)c3ccc(CN(Cc4ncc[nH]4)Cc4nccn4C)cc3)C2)CC1 [Example 40 (72), 1-(4-{[8-(1-ethylpropyl)-2,8-diazaspiro[4.5]dec-2-yl]carbonyl}phenyl)-N-(1H-imidazol-2-ylmethyl)-N-[(1-methyl-1H-imidazol-2-yl)methyl]methanamine]
Judgement (phospholipidosis inductive effect) [1]: negative
The rate of increase of phopholipid accumulation (%) [1]: 16%

SMILES: O=C(CC(=O)N1CCC2(CCN(C3CCCCC3)CC2)C1)N1CCC(N(Cc2ncc[nH]2)Cc2ncc[nH]2)CC1 [Example 65 (4), 1-[3-(8-cyclohexyl-2,8-diazaspiro[4.5]dec-2-yl)-3-oxopropanoyl]-N,N-bis(1H-imidazol-2-ylmethyl)-4-piperidinamine]
Judgement (phospholipidosis inductive effect) [1]: negative
The rate of increase of phopholipid accumulation (%) [1]: 12%
